According to patent US10575528B2, “Plant disease control composition and plant disease control method” (SUMITOMO CHEMICAL COMPANY, LIMITED, priority 2015, dated 2020):

Columns and labels:
[1] = test system: damping-off fungus (Fusarium spp.); test: Test Example 15: corn seed smearing treatment, damping-off pot test (Table 4); type: in vivo; conditions: corn seeds, 20 days after
Protocol: In a rotary seed treatment machine (trade name: HEGE11, manufactured by WINTERSTEIGER), corn seeds (variety: yellow dent corn) were treated by smearing treatment using pyraclostrobin flowable formulation (20% wettable granules, trade name: Comet, BASF. Corporation), a chemical liquid prepared by dissolving fluoxastrobin in acetone/Tween 20 (weight ratio=95:5) and diluting with water, and the flowable formulation of the present bacterial strain obtained in Formulation Example 16, respectively, so that the corn seeds retain the present bacterial strain and the compound in the amount shown in Table 4.
Cultivation was carried out in a greenhouse under irrigation. Also, similar procedures were conducted using untreated corn seeds, instead of the treated corn seeds, as described above for the treated compartment (“untreated compartment”). The plants were investigated 20 days after for the number of diseased plants, and the disease incidence was calculated by the following “Equation 1”. The control value of the treated compartment was calculated by the following equation “Equation 2”, based on the disease incidences of the treated compartment and the untreated compartment. Disease incidence (%)=100×(number of diseased plant/total number of seeded seeds): Equation 1 Control value (%)=100×[(disease incidence in […] in treated compartment)/disease incidence in untreated compartment]: Equation 2
(§1) If the effect by the combination of two active ingredients is greater than that of the estimated value E, which is calculated by the Colby's equation as follows, the effect is regarded as synergistic. E=X+Y−X·Y/100 wherein, E=Control value when using the mixture of the active ingredients A and B at the concentrations m and n (amount of the active ingredient), respectively.
(§2) X=Control value when using the active ingredient A at the concentration m (amount of the active ingredient).
(§3) Y=Control value when using the active ingredient B at the concentration n (amount of the active ingredient).

[2] = test system: damping-off fungus (Rhizoctonia solani); test: Test Example 16: soybean seed smearing treatment, damping-off pot test (Table 5); type: in vivo; conditions: soybean seeds, 20 days after
Protocol: as §1, §2, §3
In a rotary seed treatment machine (trade name: HEGE11, manufactured by WINTERSTEIGER), soybean seeds (variety:“Hatayutaka”) were treated by smearing treatment using azoxystrobin flowable formulation (25% flowable formulation, trade name: Amistar, Syngenta), trifloxystrobin flowable formulation (25% flowable formulation, trade name: FLINT, Bayer CropScience), a chemical liquid prepared by diluting picoxystrobin in acetone/Tween 20 (weight ratio=95:5) and diluting with water, a chemical liquid prepared by dissolving mandestrobin in acetone/Tween 20 (weight ratio=95:5) and diluting with water, and the flowable formulation obtained of the present bacterial strain in Formulation Example 16, so that the soybean seeds retain the bacteria and the compound in the amount shown in Table 5.
Cultivation was carried out in a greenhouse under irrigation. Also, similar procedures were conducted using untreated soybean seeds, instead of the treated soybean seeds, as described above for the treated compartment (“untreated compartment”). The plants were investigated 20 days after for the number of diseased plants, and the disease incidence was calculated by the following “Equation 1”. The control value of the treated compartment was calculated by the following equation “Equation 2”, based on the disease incidences of the treated compartment and the untreated compartment. Disease incidence (%)=100×(number of diseased plant/total number of seeded seeds): Equation 1 Control value (%)=100×[(disease incidence in untreated compartment−disease incidence in treated compartment)/disease incidence in untreated compartment]: Equation 2

## COC(=O)N(OC)c1ccccc1COc1ccn(-c2ccc(Cl)cc2)n1 [Pyraclostrobin]
[1]; 0.025 g/Kg seeds
  Controlling Effect (control value): 18.6%
[1]; 0.05 g/Kg seeds
  Controlling Effect (control value): 25.6%
[1]; 0.1 g/Kg seeds
  Controlling Effect (control value): 37.2%

## CON=C(C(=O)OC)c1ccccc1CON=C(C)c1cccc(C(F)(F)F)c1 [Trifloxystrobin]
[2]; 0.002 g/Kg seeds
  Controlling Effect (control value): 20.5%
[2]; 0.01 g/Kg seeds
  Controlling Effect (control value): 31.8%
[2]; 0.05 g/Kg seeds
  Controlling Effect (control value): 40.9%

## CO/C=C(/C(=O)OC)c1ccccc1COc1cccc(C(F)(F)F)n1 [Picoxystrobin]
[2]; 0.002 g/Kg seeds
  Controlling Effect (control value): 18.2%
[2]; 0.01 g/Kg seeds
  Controlling Effect (control value): 27.3%
[2]; 0.05 g/Kg seeds
  Controlling Effect (control value): 38.6%

## CO/C=C(/C(=O)OC)c1ccccc1Oc1cc(Oc2ccccc2C#N)ncn1 [Azoxystrobin]
[2]; 0.005 g/Kg seeds
  Controlling Effect (control value): 15.9%
[2]; 0.01 g/Kg seeds
  Controlling Effect (control value): 29.5%
[2]; 0.02 g/Kg seeds
  Controlling Effect (control value): 38.6%

## CO/N=C(/C1=NOCCO1)c1ccccc1Oc1ncnc(Oc2ccccc2Cl)c1F [Fluoxastrobin]
[1]; 0.05 g/Kg seeds
  Controlling Effect (control value): 14.0%
[1]; 0.1 g/Kg seeds
  Controlling Effect (control value): 30.2%
[1]; 0.2 g/Kg seeds
  Controlling Effect (control value): 41.9%

## CNC(=O)C(OC)c1ccccc1COc1cc(C)ccc1C (stereo not drawn) [Mandestrobin]
[2]; 0.025 g/Kg seeds
  Controlling Effect (control value): 25.0%
[2]; 0.05 g/Kg seeds
  Controlling Effect (control value): 36.4%
[2]; 0.1 g/Kg seeds
  Controlling Effect (control value): 47.7%
